Where two headings read alike, the source gives them in different places. Each block holds one compound with its values, some of them ahead of it.
Tests used:
[1] = tested on: healthy male volunteers, leg immobilization; experiment: Phase 1 placebo-controlled study in healthy volunteers with single limb immobilization; type: in vivo, human; parameters: Change from baseline in muscle strength, mean: unit not given beside the values
Protocol: In a prior clinical trial in healthy volunteers, Compound I was administered at dose of 100 mg twice daily for 28 days in healthy volunteers during and after a single limb immobilization (see NCT01524406). The study was conducted to evaluate the impact of Compound I on the recovery of muscle atrophy from leg immobilization, and improvements in cross section area (CSA) and muscle strength parameters expected in patients treated with study drug compared to those given placebo.
This phase 1, randomized, parallel group, placebo-controlled study was conducted at 2 centers in the United States. Fifty participants were planned for enrollment, 25 per group; participants could be replaced upon sponsor approval.
Screening was conducted 28 days before study start; eligibility was reviewed again at prespecified times during the study. Ambulatory, non-smoking, healthy male volunteers 30 to 55 years of age with a Body Mass Index (BMI) from 18 to 30 kg/m2 were recruited for the study. Key exclusion criteria included abnormal laboratory values at screening, a recent history of body weight fluctuations, positive urine drug screens, drug dependency or illicit drug use, professional sport participation within 30 days of screening, donation of whole blood within 90 days of dosing, and donation of plasma within 30 days of dosing. Concomitant medications within 14 days of dosing were not allowed unless approved by the sponsor. Those who had enrolled in another clinical trial within 90 days or had previously received Compound II were not allowed to participate.
Participants were randomly assigned 1:1 to receive either Compound II (100 mg BID) or matching placebo for 28 days using a computer generated randomization schedule provided by the sponsor. The principal investigator, study center staff, and participants were blinded to treatment; the protocol was amended so that sponsor personnel were not blinded. This change was made to allow investigation of observations concerning adherence to the protocol, discussed further in the pharmacodynamic results. Compound II and placebo were provided as capsules identical in appearance, taken orally with 240 ml of water prior to meals. Study drug was administered at the study site on Days 1 (PM dose), 6 (AM dose), 13 (PM dose), and 14, 15, 16, 29 (AM doses). At all other times study drug was self-administered just before breakfast and dinner. Dates and times were recorded in a diary, with compliance determined from the diaries and capsule counts. Study drug supplies were packaged according to the randomization codes by a contract research organization. Each dispensed bottle was labeled with the randomization number. Individual capsules were re-dispensed from these bottles by the study site staff, maintaining the blind. The total study duration for each subject was 42 days. Participants stayed overnight from Day 1 and Days 13 to 16.
Standardized meals, beverages and snacks were provided during the domicile periods. On Day 1, participants were leg-immobilized using a knee brace with […] on the left leg to allow driving. Walking crutches were provided to prevent weight bearing on the immobilized leg. An accelerometer was issued at screening and was used to count the number of steps per day. Participants were to walk 4000 to 6000 steps each day for the duration of the leg immobilization period, and recorded accelerometer readings each evening before bedtime. The brace was removed on Day 14, and participants resumed normal physical activity gradually from Days 16 to 29. After stopping study drug on Day 29, participants were to resume regular daily activity gradually for another 2 weeks. Consumption of prescribed medications or over the counter products was prohibited from 14 days prior to dosing and throughout the study, with the exception of the treatment of an adverse event. Participants were not to consume alcohol or caffeine containing food and beverages 3 days before each study visit and domicile periods. […]

[2] = Gravimetric Vapor Sorption (GVS); type: physicochemical; conditions: 25° C., w/w
Protocol: Sorption isotherms were obtained using a SMS DVS Intrinsic moisture sorption analyzer, controlled by DVS Intrinsic Control software. The sample temperature was maintained at 25° C. by the instrument controls. The humidity was controlled by mixing streams of dry and wet nitrogen, with a total flow rate of 200 ml/min. The relative humidity was measured by a calibrated Rotronic probe (dynamic range of 1.0-100% RH), located near the sample. The weight change, (mass relaxation) of the sample as a function of % RH was constantly monitored by a microbalance (accuracy ±0.005 mg).
Typically, 5-30 mg of sample was placed in a tared mesh stainless steel basket under ambient conditions. The sample was loaded and unloaded at 40% RH and 25° C. (typical room conditions). A moisture sorption isotherm was performed as outlined below (2 scans per complete cycle). The standard isotherm was performed at 25° C. at 10% RH intervals over a 0-90% RH range. Typically, a double cycle (4 scans) was carried out. Data analysis was carried out within Microsoft Excel using the DVS Analysis Suite.

[3] = Stability of solid state forms (storage, drying), XRPD; type: physicochemical; conditions: for XRPD after static storage: 40° C./75% RH for 10 days; for XRPD after ambient storage: 24 hours, 48 hours, 7 days, or 10 days
Protocol: Samples were assessed for stability under ambient or static storage conditions of 25° C./[…] and 40° C./75% RH for 7 or 10 days. The samples were then re-analyzed by XRPD. Subsequent XRPD analysis results for the crystalline forms are described below: […]

[4] = XRPD re-analysis after GVS isotherm; type: physicochemical; conditions: after isotherm at 90% RH and 25° C.
Protocol: The samples were recovered after completion of the isotherm experiment at 90% RH and 25° C. and re-analyzed by XRPD.

[5] = tested on: VLCAD deficient cell line FB833; conditions: FB833 cells; WO18093839; cited from earlier work
mice = conditions: cited from earlier work; for oxidative muscle fibers (and mitochondrial biogenesis) / physical performance / running endurance: combined with exercise
CPT2-deficient myoblasts = conditions: Djouadi 2005; cited from earlier work
[6] = listed as crystalline Form 2 of Compound II
[7] = listed as crystalline Form 3 of Compound II
[8] = listed as crystalline Pattern 9 of Compound II
[9] = listed as amorphous Compound II

SMILES: Cc1cc(OC/C=C(/c2ccc(F)cc2)c2ccc(C#CCN3CCOCC3)cc2)ccc1OCC(=O)[O-].[Na+] [Compound II, sodium (E)-2-(4-((3-(4-fluorophenyl)-3-(4-(3-morpholinoprop-1-yn-1-yl)phenyl)allyl)oxy)-2-methylphenoxy)acetate]
participants discontinued due to an adverse event of elevated CK ([1]; 100 mg BID): 8.3%
Change from baseline in muscle strength, mean ([1]; Day 14, 100 mg BID): −5.86
Change from baseline in muscle strength, mean ([1]; Day 21, 100 mg BID): 32.82
Change from baseline in muscle strength, mean ([1]; Day 29, 100 mg BID): 25.58
Change from baseline in muscle strength, mean ([1]; Day 42, 100 mg BID): 37.96
increase from baseline in PDK4, ANGPTL4 and SLC25A34 expression ([1]; muscle biopsies, from Day 14): up to 3.5 fold

Reversible Water Uptake between 0-90% RH [2]: ~25%
Reversible Water Uptake between 0-90% RH [2, 6]: ~25%
XRPD form after storage ([3]; 25° C./97% RH/7 days): Unchanged (Form 2)
XRPD form after storage ([3]; 25° C./97% RH/7 days, listed as crystalline Form 2 of Compound II): unchanged
XRPD form after storage ([3]; 40° C./75% RH/7 days): Unchanged (Form 2)
XRPD form after storage ([3]; 40° C./75% RH/7 days, listed as crystalline Form 2 of Compound II): unchanged
Solid State Form After GVS (XRPD) [4]: Unchanged (Form 2)
Solid State Form After GVS (XRPD) [4, 6]: unchanged
SMILES: Cc1cc(OC/C=C(/c2ccc(F)cc2)c2ccc(C#CCN3CCOCC3)cc2)ccc1OCC(=O)[O-].[Na+] [Form 2, sodium (E)-2-(4-((3-(4-fluorophenyl)-3-(4-(3-morpholinoprop-1-yn-1-yl)phenyl)allyl)oxy)-2-methylphenoxy)acetate]

Reversible Water Uptake between 0-90% RH [2]: ~9.0%
Reversible Water Uptake between 0-90% RH [2, 7]: ~9.0%
XRPD form after storage ([3]; 40° C./75% RH/7 days): Form 1
XRPD form after storage ([3]; 40° C./75% RH/7 days, listed as crystalline Form 3 of Compound II): converts to Form 1
form change on drying [3]: converts to Form 1
form change on standing ([3]; standing in ambient conditions): converts to Form 1
Solid State Form After GVS (XRPD) [4]: Form 1
Solid State Form After GVS (XRPD) [4, 7]: converts to Form 1
SMILES: Cc1cc(OC/C=C(/c2ccc(F)cc2)c2ccc(C#CCN3CCOCC3)cc2)ccc1OCC(=O)[O-].[Na+] [Form 3, sodium (E)-2-(4-((3-(4-fluorophenyl)-3-(4-(3-morpholinoprop-1-yn-1-yl)phenyl)allyl)oxy)-2-methylphenoxy)acetate]

Reversible Water Uptake between 0-90% RH [2]: ~11%
form change on drying [3]: converts to Form 1
Solid State Form After GVS (XRPD) [4]: Form 1
Solid State Form After GVS (XRPD) ([4]; listed as crystalline Form 5 of Compound II): converts to Form 1
SMILES: Cc1cc(OC/C=C(/c2ccc(F)cc2)c2ccc(C#CCN3CCOCC3)cc2)ccc1OCC(=O)[O-].[Na+] [Form 5, sodium (E)-2-(4-((3-(4-fluorophenyl)-3-(4-(3-morpholinoprop-1-yn-1-yl)phenyl)allyl)oxy)-2-methylphenoxy)acetate]

SMILES: Cc1cc(SCc2sc(-c3ccc(C(F)(F)F)c(F)c3)nc2C)ccc1OCC(=O)O [GW0742, [4-[[[2-[3-Fluoro-4-(trifluoromethyl)phenyl]-4-methyl-5-thiazolyl]methyl]thio]-2-methylphenoxy]acetic acid]
VLCAD enzyme activity [5]: increase

SMILES: Cc1cc(SCc2sc(-c3ccc(C(F)(F)F)cc3)nc2C)ccc1OCC(=O)O [GW501516, 2-[2-Methyl-4-[[[4-methyl-2-[4-(trifluoromethyl)phenyl]-5-thiazolyl]methyl]thio]phenoxy]acetic acid]
energy substrate usage (mice; 8 weeks): clear shift in energy substrate usage from glucose to fatty acid oxidation
oxidative muscle fibers (and mitochondrial biogenesis) (mice; listed as GW1516): synergistically induced
physical performance / running endurance (mice; listed as GW1516): enhanced
oxidative muscle fibers (and mitochondrial biogenesis) (mice): increase
physical performance / running endurance (mice): enhance
VLCAD enzyme activity [5]: increase

SMILES: CC(C)(Sc1ccc(CCN(CCCCC2CCCCC2)C(=O)NC2CCCCC2)cc1)C(=O)O [GW 7647]
FAO (CPT2-deficient myoblasts): had no effect

SMILES: CCCc1c(OCCCOc2ccc(OCC(=O)O)cc2)ccc(C(C)=O)c1O [L-165,0411, [4-[3-(4-Acetyl-3-hydroxy-2-propylphenoxy)propoxy]phenoxy]acetic acid]
VLCAD enzyme activity [5]: increase

stability of the solid form [3]: unstable
SMILES: Cc1cc(OC/C=C(/c2ccc(F)cc2)c2ccc(C#CCN3CCOCC3)cc2)ccc1OCC(=O)[O-].[Na+] [Pattern 5, sodium (E)-2-(4-((3-(4-fluorophenyl)-3-(4-(3-morpholinoprop-1-yn-1-yl)phenyl)allyl)oxy)-2-methylphenoxy)acetate]

form change on drying [3]: converts to Form 1
SMILES: Cc1cc(OC/C=C(/c2ccc(F)cc2)c2ccc(C#CCN3CCOCC3)cc2)ccc1OCC(=O)[O-].[Na+] [Pattern 8, sodium (E)-2-(4-((3-(4-fluorophenyl)-3-(4-(3-morpholinoprop-1-yn-1-yl)phenyl)allyl)oxy)-2-methylphenoxy)acetate]

Reversible Water Uptake between 0-90% RH [2]: ~27%
Reversible Water Uptake between 0-90% RH [2, 8]: ~27%
Solid State Form After GVS (XRPD) [4]: Unchanged (Pattern 9)
Solid State Form After GVS (XRPD) [4, 8]: unchanged
SMILES: Cc1cc(OC/C=C(/c2ccc(F)cc2)c2ccc(C#CCN3CCOCC3)cc2)ccc1OCC(=O)[O-].[Na+] [Pattern 9, sodium (E)-2-(4-((3-(4-fluorophenyl)-3-(4-(3-morpholinoprop-1-yn-1-yl)phenyl)allyl)oxy)-2-methylphenoxy)acetate]

XRPD after static storage [3, 9]: unchanged
XRPD after static storage ([3]; listed as amorphous solid form): no change
XRPD after ambient storage [3, 9]: unchanged
XRPD after ambient storage ([3]; listed as amorphous solid form): no change
SMILES: Cc1cc(OC/C=C(/c2ccc(F)cc2)c2ccc(C#CCN3CCOCC3)cc2)ccc1OCC(=O)[O-].[Na+] [amorphous, sodium (E)-2-(4-((3-(4-fluorophenyl)-3-(4-(3-morpholinoprop-1-yn-1-yl)phenyl)allyl)oxy)-2-methylphenoxy)acetate]
